Reference: ChEMBL document CHEMBL1938315, “Tricyclic 3,4-dihydropyrimidine-2-thione derivatives as potent TRPA1 antagonists” (Bioorg Med Chem Lett, 2012)

What was measured:
[1] = target: T1, Transient receptor potential cation channel subfamily A member 1 (Homo sapiens, UniProt O75762); assay: Antagonist activity at human TRPA1 expressed in HEK293 cells assessed as inhibition of 5H-dibenzo[b,e]azepine-10-carboxylic acid methyl ester-induced increase in intracellular calcium by Fluo4-AM based fluorometric assay; format: functional, cell-based
[2] = target: T2, Transient receptor potential cation channel subfamily A member 1 (Rattus norvegicus, UniProt Q6RI86); assay: Antagonist activity at rat TRPA1 expressed in HEK293 cells assessed as inhibition of BITC-induced increase in intracellular calcium concentration by Fluo4-AM based fluorometric assay; format: functional, cell-based
[3] = target: T1, Transient receptor potential cation channel subfamily A member 1; assay: Antagonist activity at human TRPA1 expressed in HEK293 cells assessed as inhibition of N-methyl-maleimide-induced current by patch clamp assay
[4] = target: T2, Transient receptor potential cation channel subfamily A member 1; assay: Antagonist activity at rat TRPA1 expressed in HEK293 cells assessed as inhibition of N-methyl-maleimide-induced current by patch clamp assay

T1 sequence (O75762 whole entry): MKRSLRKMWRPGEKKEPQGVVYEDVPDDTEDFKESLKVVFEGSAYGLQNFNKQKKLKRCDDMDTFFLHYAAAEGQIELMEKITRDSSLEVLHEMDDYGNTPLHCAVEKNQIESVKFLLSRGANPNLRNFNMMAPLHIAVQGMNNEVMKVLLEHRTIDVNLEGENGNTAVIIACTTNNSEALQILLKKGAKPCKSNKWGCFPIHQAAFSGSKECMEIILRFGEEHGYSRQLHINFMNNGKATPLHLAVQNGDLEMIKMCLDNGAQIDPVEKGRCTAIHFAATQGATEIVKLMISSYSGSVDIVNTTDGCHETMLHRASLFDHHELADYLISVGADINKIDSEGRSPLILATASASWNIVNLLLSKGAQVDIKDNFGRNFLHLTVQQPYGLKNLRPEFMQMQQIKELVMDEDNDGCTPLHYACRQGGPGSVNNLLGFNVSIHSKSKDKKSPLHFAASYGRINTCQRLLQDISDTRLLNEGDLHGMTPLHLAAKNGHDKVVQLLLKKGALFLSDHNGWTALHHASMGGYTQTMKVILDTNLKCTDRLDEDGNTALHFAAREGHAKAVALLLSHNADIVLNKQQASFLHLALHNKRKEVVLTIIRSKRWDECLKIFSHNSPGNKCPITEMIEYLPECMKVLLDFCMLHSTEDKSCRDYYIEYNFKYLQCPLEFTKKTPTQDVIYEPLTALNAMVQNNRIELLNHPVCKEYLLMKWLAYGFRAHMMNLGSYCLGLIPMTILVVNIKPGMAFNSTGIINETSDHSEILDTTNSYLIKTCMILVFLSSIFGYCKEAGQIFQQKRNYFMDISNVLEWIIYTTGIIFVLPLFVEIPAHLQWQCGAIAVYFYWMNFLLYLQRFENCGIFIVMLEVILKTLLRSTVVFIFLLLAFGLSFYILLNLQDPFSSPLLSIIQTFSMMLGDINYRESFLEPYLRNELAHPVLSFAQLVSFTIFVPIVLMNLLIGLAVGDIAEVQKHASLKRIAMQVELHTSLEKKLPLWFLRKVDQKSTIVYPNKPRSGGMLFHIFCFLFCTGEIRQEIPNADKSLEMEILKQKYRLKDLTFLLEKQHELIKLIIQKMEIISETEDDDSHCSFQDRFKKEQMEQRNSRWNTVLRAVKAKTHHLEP
T2 sequence (Q6RI86 whole entry): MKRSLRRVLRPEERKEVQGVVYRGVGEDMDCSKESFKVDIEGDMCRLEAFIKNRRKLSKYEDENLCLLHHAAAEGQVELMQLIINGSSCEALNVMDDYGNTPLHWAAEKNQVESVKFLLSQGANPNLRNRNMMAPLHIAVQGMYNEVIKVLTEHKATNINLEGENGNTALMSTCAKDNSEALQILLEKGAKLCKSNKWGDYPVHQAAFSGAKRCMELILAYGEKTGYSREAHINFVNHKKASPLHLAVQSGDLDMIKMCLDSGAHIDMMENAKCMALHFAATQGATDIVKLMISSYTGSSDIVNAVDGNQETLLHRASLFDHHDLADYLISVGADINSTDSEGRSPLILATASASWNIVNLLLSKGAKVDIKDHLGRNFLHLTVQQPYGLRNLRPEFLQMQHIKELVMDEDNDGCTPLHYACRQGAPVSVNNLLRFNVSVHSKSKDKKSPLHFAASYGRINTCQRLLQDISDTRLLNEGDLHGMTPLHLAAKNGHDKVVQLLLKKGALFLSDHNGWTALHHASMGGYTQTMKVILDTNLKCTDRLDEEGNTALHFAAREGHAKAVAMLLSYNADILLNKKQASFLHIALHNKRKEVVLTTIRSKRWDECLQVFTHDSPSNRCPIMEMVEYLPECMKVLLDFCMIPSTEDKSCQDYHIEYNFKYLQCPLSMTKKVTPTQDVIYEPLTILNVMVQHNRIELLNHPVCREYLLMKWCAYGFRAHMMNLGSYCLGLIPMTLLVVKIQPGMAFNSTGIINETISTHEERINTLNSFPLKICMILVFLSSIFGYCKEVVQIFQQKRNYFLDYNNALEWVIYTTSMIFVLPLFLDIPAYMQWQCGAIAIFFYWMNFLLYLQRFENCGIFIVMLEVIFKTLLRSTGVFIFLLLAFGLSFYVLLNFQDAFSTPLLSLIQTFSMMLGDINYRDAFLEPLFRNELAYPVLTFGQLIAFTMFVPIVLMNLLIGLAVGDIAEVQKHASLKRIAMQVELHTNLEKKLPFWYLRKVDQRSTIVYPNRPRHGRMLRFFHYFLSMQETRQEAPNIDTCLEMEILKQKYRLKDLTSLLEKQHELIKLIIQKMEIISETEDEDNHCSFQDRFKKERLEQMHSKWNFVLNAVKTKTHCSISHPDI

Structure (SMILES)	IC50 [1]	IC50 [2]	EC50 [3]	EC50 [4]
S=C1NC2=C(CCCC2)C(c2ccccc2)N1 (stereo unspecified)	> 10000 nM	–	–	–
S=C1NC2=C(CCc3ccccc32)C(c2ccccc2)N1 (stereo unspecified)	> 10000 nM	–	–	–
CN(C)CCCOc1cccc(C2NC(=S)NC3=C2C(=O)c2ccccc23)c1 (stereo unspecified)	> 10000 nM	> 10000 nM	–	–
COCCCOc1cccc([C@H]2NC(=S)NC3=C2C(=O)c2ccccc23)c1	13 nM	4 nM	–	–
O=C1C2=C(NC(=S)NC2c2ccccc2)c2ccccc21 (racemic)	1800 nM	1900 nM	–	–
COCCCOc1cccc(C2NC(=O)NC3=C2C(=O)c2ccccc23)c1 (racemic)	1700 nM	500 nM	–	–
COc1cccc(C2NC(=S)NC3=C2C(=O)c2ccccc23)c1 (racemic)	130 nM	20 nM	–	–
O=C1C2=C(NC(=S)NC2c2cccc(OCCCCO)c2)c2ccccc21 (stereo unspecified)	70 nM	10 nM	–	–
COCCCOc1cccc(C2NC(=S)NC3=C2C(=O)c2ccccc23)c1 (racemic)	50 nM	11 nM	–	–
COc1cccc(C2C3=C(NC(=S)N2C)c2ccccc2C3=O)c1 (racemic)	–	980 nM	–	–
COc1cccc(C2NC(=S)N(C)C3=C2C(=O)c2ccccc23)c1 (racemic)	85 nM	3 nM	–	–
COc1cccc(C2NC(=S)NC3=C2C(=O)c2ccccc23)c1OC (stereo unspecified)	–	2700 nM	–	–
O=C1C2=C(NC(=S)NC2c2cccc(OCCO)c2)c2ccccc21 (stereo unspecified)	210 nM	47 nM	–	–
SC1=NC2=C(CCC/C2=C\c2ccccc2)C(c2ccccc2)N1 (stereo unspecified)	> 10000 nM	–	–	–
O=C(O)c1cccc(C2NC(=S)NC3=C2C(=O)c2ccccc23)c1 (stereo unspecified)	> 10000 nM	> 10000 nM	–	–
COc1cccc([C@H]2NC(=S)NC3=C2C(=O)c2ccccc23)c1	75 nM	12 nM	10 nM	220 nM
O=C1C2=C(NC(=S)N[C@H]2c2ccccc2)c2ccccc21	8100 nM	> 10000 nM	–	–
CN(C)CCOc1cccc(C2NC(=S)NC3=C2C(=O)c2ccccc23)c1 (stereo unspecified)	> 10000 nM	8900 nM	–	–
COc1cccc(C2NC(=O)NC3=C2C(=O)c2ccccc23)c1 (racemic)	3900 nM	4700 nM	–	–
O=C1C2=C(NC(=S)NC2c2cccc(F)c2)c2ccccc21 (stereo unspecified)	1100 nM	390 nM	–	–
COc1ccccc1C1NC(=S)NC2=C1C(=O)c1ccccc12 (stereo unspecified)	> 10000 nM	9400 nM	–	–

Structure (SMILES)	IC50 [1]	IC50 [2]	EC50 [3]	EC50 [4]
SC1=NC(c2ccccc2)=CC(c2ccccc2)N1 (stereo unspecified)	> 10000 nM	–	–	–
S=C(NCc1ccccc1)NCc1ccccc1	> 10000 nM	–	–	–
CCOC(=O)C1=C(c2ccccc2)NC(=S)NC1c1cccc(OC)c1 (stereo unspecified)	> 10000 nM	9500 nM	–	–
COCCCOc1cccc([C@@H]2NC(=S)NC3=C2C(=O)c2ccccc23)c1	–	> 10000 nM	–	–
O=C1NC2=C(C(=O)c3ccccc32)C(c2ccccc2)N1 (stereo unspecified)	> 10000 nM	> 10000 nM	–	–
O=C1CCCC2=C1C(c1ccccc1)NC(S)=N2 (stereo unspecified)	> 10000 nM	–	–	–
O=C1C2=C(NC(=S)NC2c2cccc(O)c2)c2ccccc21 (stereo unspecified)	640 nM	230 nM	–	–
COc1ccc(C2NC(=S)NC3=C2C(=O)c2ccccc23)cc1 (stereo unspecified)	3100 nM	3500 nM	–	–
CCCCOc1cccc(C2NC(=S)NC3=C2C(=O)c2ccccc23)c1 (stereo unspecified)	310 nM	70 nM	–	–
CC(C)c1ccc(NC(=O)Cn2cnc3c2c(=O)n(C)c(=O)n3C)cc1	> 10000 nM	5600 nM	–	–
O=C1C2=C(NC(=S)NC2c2cccc(CO)c2)c2ccccc21 (stereo unspecified)	710 nM	44 nM	–	–
COc1cccc([C@@H]2NC(=S)NC3=C2C(=O)c2ccccc23)c1	–	> 10000 nM	12000 nM	–
COc1ccc(Oc2cccc(C3NC(=S)NC4=C3C(=O)c3ccccc34)c2)cc1 (stereo unspecified)	1500 nM	160 nM	–	–
COc1cc(OC)cc(C2NC(=S)NC3=C2C(=O)c2ccccc23)c1 (stereo unspecified)	2780 nM	800 nM	–	–
S=C1NC2=C(CCC2)C(c2ccccc2)N1 (stereo unspecified)	> 10000 nM	–	–	–
O=C1C2=C(NC(=S)NC2c2cccc(Br)c2)c2ccccc21 (stereo unspecified)	–	71 nM	–	–
O=C1C2=C(NC(=S)N[C@@H]2c2ccccc2)c2ccccc21	770 nM	310 nM	–	–
COc1ccc(OC)c(C2NC(=S)NC3=C2C(=O)c2ccccc23)c1 (stereo unspecified)	–	> 10000 nM	–	–
CC1=C(C(=O)c2ccccc2)C(c2ccccc2)NC(=S)N1 (stereo unspecified)	> 10000 nM	–	–	–
O=C1C2=C(NC(=S)NC2c2ccccc2F)c2ccccc21 (stereo unspecified)	2070 nM	3390 nM	–	–
